Test systems include BT-549 breast; SNB-75 CNS; HCT-15 colon; OVCAR-5 ovarian; M14 melanoma; UACC-62 melanoma; OVCAR-8 ovarian; SF-268 CNS; T-47D breast; SK-OV-3 ovarian; NCI-H522 lung; ACHN renal; HT29 colon; MDA-MB-231 breast; SF-539 CNS; SR leukemia; K-562 leukemia.
What all share (assay): NCI tumour cell line growth inhibition, 48 h

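Results reflect a 48-hour exposure of cells in 96-well plates to compound at five concentrations. At the TGI there is no net growth.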

Consider `O=C1NC(N2CCOCC2)=N/C1=C\c1ccc(Cl)cc1`, for which the TGI with BT-549 breast, in the assay with SNB-75 CNS, in the assay on HCT-15 colon, in the assay on OVCAR-5 ovarian, in the assay with M14 melanoma and in the assay on UACC-62 melanoma was > 100 µM in each case. Besides, the TGI in the assay with OVCAR-8 ovarian, in the assay with SF-268 CNS, in the assay with T-47D breast, with SK-OV-3 ovarian, in the assay on NCI-H522 lung and with ACHN renal was > 100 µM in each case. In addition, the TGI in the assay with HT29 colon, in the assay with MDA-MB-231 breast, in the assay on SF-539 CNS and in the assay with SR leukemia was > 100 µM each time.

In the case of `O=C(NC1(c2cc3ccccc3s2)CCCCC1)C1CCC1`, the TGI in the assay on BT-549 breast, in the assay with SNB-75 CNS, in the assay with K-562 leukemia, in the assay with HCT-15 colon, in the assay with OVCAR-5 ovarian and in the assay with M14 melanoma was > 100 µM each time. Besides, the TGI in the assay with UACC-62 melanoma, in the assay with OVCAR-8 ovarian, with T-47D breast, in the assay with SK-OV-3 ovarian, with NCI-H522 lung and with ACHN renal was > 100 µM throughout. In addition, the TGI with HT29 colon, in the assay with MDA-MB-231 breast, with SF-539 CNS and in the assay with SR leukemia was > 100 µM throughout.

Turning to `CCc1ccccc1N=NC(=O)NNc1ccccc1CC`, the TGI with BT-549 breast was determined as 34.3 µM; in the assay on SNB-75 CNS, 45.7 µM; in the assay with K-562 leukemia, 68.5 µM; in the assay on HCT-15 colon, 38.1 µM; in the assay on OVCAR-5 ovarian it was 29.4 µM; with M14 melanoma it was 34.7 µM. In addition, the TGI in the assay with UACC-62 melanoma turned out to be 23 µM; with OVCAR-8 ovarian it was 32.8 µM; with SF-268 CNS, 35.4 µM; in the assay on T-47D breast, 32.2 µM; in the assay with NCI-H522 lung, 41.3 µM; in the assay with ACHN renal it was 54.6 µM. Moreover, the TGI in the assay with HT29 colon came out at 40.8 µM; in the assay on MDA-MB-231 breast, 50.1 µM; in the assay with SR leukemia, 57.1 µM.

Regarding `COc1ccccc1NC(=S)N/N=C/c1c(C)n(C)n(-c2ccccc2)c1=O`, the TGI with BT-549 breast, in the assay on SNB-75 CNS, in the assay on K-562 leukemia, in the assay on HCT-15 colon, in the assay with M14 melanoma and in the assay on UACC-62 melanoma was > 100 µM each time. The TGI in the assay with OVCAR-8 ovarian, in the assay on SF-268 CNS, in the assay on T-47D breast, in the assay with SK-OV-3 ovarian, with ACHN renal and in the assay on HT29 colon was > 100 µM throughout. Also, the TGI with MDA-MB-231 breast, in the assay on SF-539 CNS and in the assay with SR leukemia was > 100 µM in each case.

For the molecule `OC(c1ccc(F)cc1)C(F)(F)c1nc2ccccc2o1` (stereo not drawn), the TGI in the assay with BT-549 breast is > 100 µM; in the assay on SNB-75 CNS, > 100 µM; with K-562 leukemia, 82.3 µM; in the assay with HCT-15 colon, > 100 µM; in the assay on M14 melanoma, > 100 µM; in the assay with UACC-62 melanoma, > 100 µM. Moreover, the TGI with OVCAR-8 ovarian, in the assay on SF-268 CNS, in the assay on T-47D breast, with SK-OV-3 ovarian, in the assay on ACHN renal and in the assay with HT29 colon was > 100 µM in each case. For the same molecule, the TGI in the assay with MDA-MB-231 breast, in the assay on SF-539 CNS and in the assay on SR leukemia was > 100 µM each time.

In the case of `Cc1cn([C@@H]2C[C@@H]2CO)c(=O)[nH]c1=O`, the TGI in the assay on BT-549 breast, in the assay on SNB-75 CNS, with K-562 leukemia, with HCT-15 colon, in the assay on OVCAR-5 ovarian and with M14 melanoma was > 100 µM in each case. In addition, the TGI in the assay on UACC-62 melanoma, in the assay with OVCAR-8 ovarian, in the assay on SF-268 CNS, with T-47D breast, with NCI-H522 lung and with ACHN renal was > 100 µM each time. For the same molecule, the TGI with HT29 colon, in the assay on MDA-MB-231 breast, in the assay with SF-539 CNS and in the assay with SR leukemia was > 100 µM each time.

With `COc1ccc(N=N/C(=N/NC(=O)c2ccc(C)cc2)c2ccc(N(CCC#N)CCC#N)cc2OC)cc1`, the TGI in the assay on BT-549 breast, in the assay with K-562 leukemia, in the assay on HCT-15 colon, with OVCAR-5 ovarian, in the assay on M14 melanoma and in the assay on UACC-62 melanoma was > 100 µM throughout. The TGI in the assay on OVCAR-8 ovarian, in the assay with SF-268 CNS, in the assay on T-47D breast, in the assay on SK-OV-3 ovarian, with NCI-H522 lung and in the assay on ACHN renal was > 100 µM each time. Moreover, the TGI in the assay on HT29 colon, with MDA-MB-231 breast and with SR leukemia was > 100 µM throughout.

Turning to `N#Cc1nc(CCN2C(=O)c3ccccc3C2=O)oc1N`, the TGI with BT-549 breast, with K-562 leukemia, with HCT-15 colon, in the assay on OVCAR-5 ovarian, in the assay with M14 melanoma and in the assay with OVCAR-8 ovarian was > 100 µM in each case. Further, the TGI in the assay on SF-268 CNS, in the assay on T-47D breast, in the assay on SK-OV-3 ovarian, in the assay on NCI-H522 lung, in the assay with ACHN renal and in the assay on HT29 colon was > 100 µM in each case. Also, the TGI in the assay with MDA-MB-231 breast, in the assay with SF-539 CNS and in the assay with SR leukemia was > 100 µM throughout.

`CCOC(=O)c1c(N)n(-c2ccccc2)c(=O)n(-c2ccccc2)c1=O`: the TGI with BT-549 breast, in the assay with SNB-75 CNS, in the assay with K-562 leukemia, with HCT-15 colon, in the assay on OVCAR-5 ovarian and in the assay with M14 melanoma was > 100 µM in each case. Besides, the TGI in the assay on UACC-62 melanoma, in the assay on OVCAR-8 ovarian, with SF-268 CNS, in the assay on T-47D breast, in the assay with NCI-H522 lung and in the assay on ACHN renal was > 100 µM in each case. Besides, the TGI in the assay on HT29 colon, with MDA-MB-231 breast and in the assay with SR leukemia was > 100 µM each time.

These data come from PubChem BioAssay (NCI).
